pIC50: −log10 of the molar value. Active and inactive are the calls of the source. The calls are words filed in the database; no cut-off is given here. Residues, ends and D or L forms follow the SMILES beside them. *: point of attachment. CH2Cl = ClC*
Columns and labels:
[1] = molecular target: T1, Threonine aspartase 1 (Homo sapiens) (UniProt Q9H6P5); experiment: Covalent irreversible inhibition of recombinant Taspase1 (unknown origin) at 0.1 mM using [35S]-methionine labeled human MLL1 (2400-2900 residues) as substrate preincubated for 15 to 60 mins followed by substrate addition measured after 30 mins by SDS-PAGE based autoradiography
T1 sequence (whole entry): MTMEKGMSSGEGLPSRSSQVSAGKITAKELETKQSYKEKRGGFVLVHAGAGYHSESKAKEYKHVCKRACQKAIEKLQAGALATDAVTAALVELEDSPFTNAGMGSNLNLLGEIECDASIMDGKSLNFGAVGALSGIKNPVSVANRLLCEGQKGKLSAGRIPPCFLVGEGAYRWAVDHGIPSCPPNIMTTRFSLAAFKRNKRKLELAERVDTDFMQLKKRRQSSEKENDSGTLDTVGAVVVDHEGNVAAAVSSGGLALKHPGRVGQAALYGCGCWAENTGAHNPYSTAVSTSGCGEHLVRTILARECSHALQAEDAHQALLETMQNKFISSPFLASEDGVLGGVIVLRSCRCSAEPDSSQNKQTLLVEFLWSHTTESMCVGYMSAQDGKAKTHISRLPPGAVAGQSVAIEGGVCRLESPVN

[2] = system: SF-268; experiment: Growth inhibition of human SF268 cells expressing Taspase1; assay type: functional, cell-based
[3] = system: MCF7; experiment: Growth inhibition of human MCF7 cells expressing Taspase1; assay type: functional, cell-based
[4] = system: Hs-578T; experiment: Growth inhibition of human Hs578T cells expressing Taspase1; assay type: functional, cell-based
[5] = system: SF-539; experiment: Growth inhibition of human SF539 cells expressing Taspase1; assay type: functional, cell-based
[6] = system: T47D; experiment: Growth inhibition of human T47D cells expressing Taspase1; assay type: functional, cell-based
[7] = molecular target: T1, Threonine aspartase 1 (Homo sapiens); experiment: Inhibition of recombinant Taspase1 (unknown origin) at 10 uM using [35S]-methionine labeled human MLL1 (2400-2900 residues) as substrate preincubated for 30 mins followed by substrate addition measured after 30 mins by SDS-PAGE based autoradiography
[8] = system: MEF; experiment: Growth inhibition of SV40 transformed Taspase1 deficient MEF after 2 days by MTT assay; assay type: functional, cell-based; settings: Mus musculus
[9] = molecular target: Caspase-8 (Homo sapiens) (UniProt Q14790); experiment: Inhibition of recombinant caspase8 (unknown origin) at 1 mM using [35S]-methionine labeled p22 BID as substrate preincubated for 30 mins followed by substrate addition measured after 2 hrs by SDS-PAGE based autoradiography
[10] = system: MDA-MB-231; experiment: Growth inhibition of human MDA-MB-231 cells expressing Taspase1; assay type: functional, cell-based
[11] = system: SF-295; experiment: Growth inhibition of human SF295 cells expressing Taspase1; assay type: functional, cell-based
[12] = system: SNB-75; experiment: Growth inhibition of human SNB75 cells expressing Taspase1; assay type: functional, cell-based
[13] = system: U-251; experiment: Growth inhibition of human U251 cells expressing Taspase1; assay type: functional, cell-based
[14] = system: MEF; experiment: Growth inhibition of SV40 transformed wild-type Taspase1 expressing MEF after 2 days by MTT ssay; assay type: functional, cell-based; settings: Mus musculus
[15] = system: BT-549; experiment: Growth inhibition of human BT549 cells expressing Taspase1; assay type: functional, cell-based
[16] = molecular target: T1, Threonine aspartase 1 (Homo sapiens); experiment: Inhibition of recombinant Taspase1 (unknown origin) at 1 mM using [35S]-methionine labeled human MLL1 (2400-2900 residues) as substrate preincubated for 30 mins followed by substrate addition measured after 30 mins by SDS-PAGE based autoradiography
[17] = molecular target: T2, Threonine aspartase 1 (Homo sapiens, UniProt Q9H6P5); experiment: Inhibition of recombinant Taspase1 (unknown origin) using [35S]-methionine labeled human MLL1 (2400-2900 residues) as substrate preincubated for 30 mins followed by substrate addition measured after 30 mins by SDS-PAGE based autoradiography
T2 sequence (Q9H6P5 whole entry): T1 sequence (whole entry)

[18] = molecular target: T1, Threonine aspartase 1 (Homo sapiens); experiment: Inhibition of recombinant Taspase1 (unknown origin) at 10 to 1000 uM using [35S]-methionine labeled human MLL1 (2400-2900 residues) as substrate preincubated for 30 mins followed by substrate addition measured after 30 mins by SDS-PAGE based autoradiography
[19] = molecular target: T1, Threonine aspartase 1 (Homo sapiens); experiment: Inhibition of recombinant Taspase1 (unknown origin) up to 0.1 mM using [35S]-methionine labeled human MLL1 (2400-2900 residues) as substrate preincubated for 30 mins followed by substrate addition measured after 30 mins by SDS-PAGE based autoradiography

Chain of Caspase-8 (Homo sapiens) (Q14790 217-374 limits assumed): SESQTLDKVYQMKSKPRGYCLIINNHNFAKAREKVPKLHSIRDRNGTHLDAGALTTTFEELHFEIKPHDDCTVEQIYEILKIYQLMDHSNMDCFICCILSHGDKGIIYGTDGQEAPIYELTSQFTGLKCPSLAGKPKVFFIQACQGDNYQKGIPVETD
Chain of Caspase-8 (Homo sapiens) (Q14790 385-479 limits assumed): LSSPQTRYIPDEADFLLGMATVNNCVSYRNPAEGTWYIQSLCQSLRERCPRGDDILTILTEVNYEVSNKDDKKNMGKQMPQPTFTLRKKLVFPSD

SMILES: O=[As](O)(O)c1ccc(Cc2ccc([As](=O)(O)O)cc2)cc1
- inhibition [1]: inactive
- growth inhibition (GI) [2]: Active
- growth inhibition (GI) [3]: Active
- growth inhibition (GI) [4]: Active
- growth inhibition (GI) [5]: Active
- growth inhibition (GI) [6]: Active
- inhibition [7]: Active
- growth inhibition (GI) [8]: inactive
- inhibition [9]: inactive
- growth inhibition (GI) [10]: Active
- growth inhibition (GI) [11]: Active
- growth inhibition (GI) [12]: Active
- growth inhibition (GI) [13]: Active
- growth inhibition (GI) [14]: Active
- growth inhibition (GI) [15]: Active
- inhibition [16]: Active

SMILES: CC[C@H](C)[C@H](NC(=O)[C@H](CCCCN)NC(C)=O)C(=O)N[C@@H](CO)C(=O)N[C@@H](CCC(N)=O)C(=O)N[C@@H](CC(C)C)C(=O)N[C@H](C=O)CC(=O)O (Ac-KISQLD-aldehyde)
- pIC50 [17]: < 4.00

SMILES: O=C(O)Cc1ccc(Oc2ccc(CC(=O)O)cc2)cc1
- inhibition [18]: inactive

SMILES: CC[C@H](C)[C@H](NC(C)=O)C(=O)N[C@@H](CO)C(=O)N[C@@H](CCC(N)=O)C(=O)N[C@@H](CC(C)C)C(=O)N[C@@H](CC(=O)O)C(=O)CCl (Ac-ISQLD-CH2Cl)
- pIC50 [17]: < 4.00

SMILES: O=[As](O)(O)O
- inhibition [19]: inactive

— ChEMBL document CHEMBL3991945, “TASPASE1 inhibitors and their uses” (2013)
